Test results taken from patent USRE49873E1, “APP specific bace inhibitors (ASBIs) and uses thereof” (BUCK INSTITUTE FOR RESEARCH ON AGING, priority 2012, dated 2024).

Tests used:
[1] = system: sAPPβ production by SH-SY5Y cells; assay: sAPPβ AlphaLisa in SH-SY5Y neuroblastoma cells; assay type: cell-based
Description: APP is processed through two major pathways: the non-amyloidogenic pathway involves α-secretase cleavage, proteolyzing APP into sAPPα and α-CTF (C83), while the amyloidogenic pathway starts with β-secretase cleavage, cleaving APP into sAPPβ and β-CTF (C99). The β-CTF is then cleaved by the γ-secretase, which produces Aβ and AICD. The ability of the ASBIs to inhibit the β-secretase processing of APP was tested in SH-SY5Y neuroblastoma cells that express APP. The sAPPβ fragment formed from the BACE cleavage product was measured using an AlphaLisa assay from Perkin-Elmer (Cat# A2132). […] Testing of a panel of bioflavonoids led to the identification of galangin as an ASBI.

[2] = system: β-CTF production in CHO cells stably over-expressing human APP; assay: β-CTF western blot in CHO cells over-expressing human APP; assay type: cell-based, Chinese Hamster; conditions: 10 μM, 24 hr, western blot of cell lysates
Description: (§1) Chinese Hamster Ovary (CHO) cells stably over-expressing human APP were treated with 10 μM Galangin or DMSO for 24 hr, then the cell lysates and conditioned media were collected. The levels of full length APP and β-CTF in the cell lysates and the levels of sAPPα in the conditioned media were detected by western blot. […] BACE1-dependent cleavage of SEAP-NRG1-β1 was evaluated by SEAP assays with supernatants of control human embryonic kidney 293 (HEK293) cells (SEAP-NRG1-β1) or HEK293 cells co-expressing BACE1 (SEAP-NRG1-β1+BACE1), treated with DMSO or Galangin (10 μM). An increase in shedding of the SEAP-NRG1-b1 fusion protein was measured upon BACE1 co-expression. Shedding in co-expressing cells was not suppressed by Galangin. Error bars indicate SEM. (N.S., p>0.05; n=4, student t test).
The Chinese Hamster Ovary (CHO) cell line over-expressing human AβPP (7 W) was kindly provided by Dr. Edward Koo. Plasmid constructs were transiently transfected into HEK293T or 7 W cells with Lipofectamine 2000 (Invitrogen). Western Blot analysis was performed as previously described (Swistowski et al. (2009) J. Neurosci., 29: 15703-15712). Briefly, 48 hr after transfection, cells were harvested and lysed in NP-40 Cell Lysis Buffer (50 mM TrisHCl, pH 8.0, 150 mM NaCl and 1% NP-40). Cell lysates were mixed with 1×LDS loading buffer (Invitrogen) and 50 mM DTT, and boiled at 100° C. for 10 min. […]

[3] = system: BACE1 cleavage of neuregulin1 in HEK293 cells; assay: Neuregulin1 shedding assay (SEAP-NRG1-β1); assay type: cell-based, human; conditions: 10 μM, HEK293 cells co-expressing BACE1
Description: as §1
A cDNA construct encoding a human placental secreted alkaline phosphatase (SEAP)-NRG1 (pAPtag5-NRG1-β1) fusion protein was transfected in HEK293 cells in a 6-well format with or without full-length wild-type BACE1 using Lipofectamine 2000 (Invitrogen) as described previously (Vassar et al. (1999) Science, 286: 735-741). After transfection the medium was replaced with DMEM containing 10% heat-inactivated Fetal Bovine Serum and incubated for 24 hr. SEAP activity was measured in the conditioned medium. […] The absorbance was read at 405 nm. […]

[4] = target: T1, TRX-eAPP575-624 (Homo sapiens, UniProt P05067); assay: Surface plasmon resonance binding to APP ectodomain fragments; conditions: FIG. 5B
T1 construct: thioredoxin (TRX) and residues 575-624 of the ectodomain; made in house
Description: Three fusion proteins were immobilized via amine coupling using 20 mM phosphate, 125 mM sodium chloride pH 7.4. The three proteins were MBP-eAPP230-624—a fusion protein containing maltose binding protein (MBP) and residues 230624 of the ectodomain of APP (90-kDa) (FC4), eAPP230-624—a protein that contains only residues 230-624 (45-kDa)(FC2), and TRX-eAPP575-624—a fusion protein containing thioredoxin (TRX) and residues 575-624 of the ectodomain (20 -kDa) (FC3). The proteins were produced as described in Libeu, et al. (2011) J. Alzheimers Dis., 25(3): 547-566 Libeu et al (2011). The flow cell FC1 was used as a control. Galangin was diluted from 10 mM solutions in DMSO to 50 μM in 1% DMSO, 20 mM sodium phosphate pH 7.4, 125 mM sodium chloride, 0.05% Tween and then serially diluted by 1.5 for 10 steps. Binding traces were recorded for each dilution with a binding phase of 60 seconds and a dissociation phase of 240 seconds. Each cycle was performed at 20° C. with a constant flow rate of 20 μl/min. […]
The binding affinity of the compounds for the ectodomain of APP was determined using SPR. […] Galangin at various concentrations were used in the flow through over the chip and the plasmon resonance signal was determined using a Biacore T100 (FIG. 5B).

T1 sequence (P05067 650-699): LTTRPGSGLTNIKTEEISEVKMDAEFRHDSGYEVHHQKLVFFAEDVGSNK

**Q.** With `O=c1c(O)c(-c2ccccc2)oc2cc(O)cc(O)c12` [Galangin] as the compound, how does the APP levels [1] read?
**A.** No effect on APP levels was detected

**Q.** What about the sAPPβ levels ([1]; 50 μM) of the same compound?
**A.** decreased sAPPβ levels

**Q.** What about the β-CTF production [2] of the same compound?
**A.** inhibits β-CTF production

**Q.** And the “BACE1-dependent shedding of SEAP-NRG1-β1” value [3]?
**A.** does not inhibit BACE1 cleavage of neuregulin1

**Q.** And the “binding to APP by SPR” value [4]?
**A.** demonstrated binding to the APP substrate
